Assay results reported in patent US11103458B2, “Stimulant abuse-deterrent compositions” (4P-Pharma, priority 2015, dated 2021).
Where “and” joins values, the source holds several entries; their conditions need not be identical. Identical values can stand only once. Entries after “also recorded” stand apart in the source; their conditions may differ. Counter-ions that a name gives are not always drawn. Like-named read-outs stand apart in the source and are kept apart here. Marks after values point to notes of the source that are not given here.

Columns and labels:
[1] = test system: Male C57BI mice; test: Apomorphine mediated inhibition of RITALIN®-induced hyperactivity in activity box (pilot study, Example 5); type: in vivo; conditions: for locomotion after apomorphine alone: given at 5 mg/kg, 5 mg/kg
Experimental: Male mice C57BI weighing about 22 g were used in the study.
Male C57BI mice weighing about 22 g were used in the study.
Mice were administered saline solutions of the two actives as follows:
Methylphenidate was dissolved in saline 0.9% to a concentration of 0.5 mg/ml,
Both compounds' solutions were administered at dose volume of […].
Animals' motor locomotion in four groups (1-4 M) was assessed in the activity box. Animals were placed in the activity box and several parameters were observed including movement time, distance, V-plan entries, margin vs. center time, and other parameters. Groups 1-3 M were monitored for 30 minutes each, during which all parameters were assessed at 2 minutes intervals. In the 4 M group, animals were monitored for 60 minutes with 2 minutes assessment intervals. The assessment in the activity box was done in total darkness (red light was used for illumination). The main parameters that were calculated in this study were the move time, total distance and vertical plan entry. The observation for groups 1-3 M were made during 30 minutes with 2 minutes calculation intervals of each parameter. In the fourth group (4 M) the observations were extended for 60 minutes with 2 minutes calculation intervals

[2] = test system: mice; test: Apomorphine blocking of RITALIN®-induced hyperactivity at human equivalent dosing (second study, Example 6); type: in vivo; conditions: mice (n=4)
[3] = test system: C57bl/6J male mice; test: Open Field Test (OFT, activity box) with Methylphenidate, Apomorphine and their combination (Example 7); type: in vivo; conditions: for Center Time / Distance / Rearing Time / Velocity: Day 1, group average; for effect on Methylphenidate-increased distance travelled and velocity: Methylphenidate 5 mg/kg, dose dependent
Experimental: Eight groups comprising eight or nine C57bl/6J male mice were assigned for this study. Methylphenidate (MPH) was used as the model inducer. […] Spontaneous activity in Open Field Test (OFT) was performed.
Each Test Item and vehicle formulation was administrated to 8/9 mice per group. The administration was performed PO or IP according to group allocation in Table 1.
The open field test (OFT) is a commonly used qualitative and quantitative measure of general locomotor activity and willingness to explore in rodents. Open Field test (OFT) was performed according to Pharmaseed SOP No. 113: “Open Field for Mice Testing”. OFT was performed 15 or 30 min after test item IP or PO administration, respectively.
Fifteen minutes after test item/vehicle administration, mice were placed at the center of an open field box (43×43×40 cm) approximately at the same time of the day. On each side of the open field box, two frames placed at 2 and 5 cm height with 16 photocell beams per side ensured movement detection. The computer defined grid lines that divided the open field into two compartments: margin and center. Several variables were recorded during a 15 minute session of spontaneous activity including: • Indices of motor exploratory activity: distance travelled, moving time, and velocity • Indices of habituation: distance travelled during the last 5-min period in percent of the first+last 5-min periods. • Indices of anxiety: percentage of distance travelled and time spent in the central zone of the open-field. • Curiosity activity: rearing episodes and time Open Field Test (Activity Box)
OFT was performed 15 or 30 min after test item IP or PO administration, respectively. The parameters measured were distance and velocity as indicators of general motility, time spent in center as an indicator for anxiety and rearing time as indicator of the animal's curiosity.

[4] = PK analysis of Methylphenidate and Apomorphine in dogs' plasma (Example 8); conditions: for change in PK profile on co-administration: t-test: no statistical significance
Experimental: (§1) Six groups comprising six dogs were assigned for this Example. Methylphenidate (MPH) was used as the model inducer. […] Behavioral observation was performed during 6 hours following test items administration and blood samples were taken on 4 dogs per group at 0.25, 0.5, 1, 1.5, 3, 4 and 6 hours post-administration for pharmacokinetic (PK) analysis.
Blood Collection and PK analysis: For blood collection, a 5 ml syringe was used and blood sampling was directly collected at the jugular vein. Blood samples were collected in K3-EDTA tubes at the following time points: 0.25, 0.5, 1, 1.5, 3, 4 and 6 hours post-administration (7 samples). At each time point, 6 ml of blood was collected for 4 drug-treated dogs. Plasma samples were analyzed using LC-MS/MS and PK analysis was performed using the PK Solutions Version 2.0 program.

[5] = test system: dogs; test: Behavior observation: activity levels and clinical signs in dogs (Example 8); conditions: for video observation: behavior associated to hyperactivity: first 60-100 min
Experimental: as §1
Animals: Mixed breed dogs (5 Males+7 females/12/3 to 5 years/10.5 to 18.5 kg, from SPM Biocameltec) were used in the studies outlined in this example.
Administration of the test items: Each Test Item was administrated to 6 dogs per group. The administration was performed PO or IV according to group allocation in Table 3. The study was performed in 3 cycles and a period of wash-out of at least 10 days was respected between each cycle.
Behavior observation: The animals were observed every 10 minutes during the first 2 hours post administration, and every 20 minutes thereafter, for 6 hours. Observations included respiratory, circulatory, autonomic and central nervous systems, somatomotor activity and behavior pattern (e.g. sedation, respiration rate, changes in mentation, gait, and the like).

[6] = test system: dogs; test: Apomorphine-induced emesis in dogs (Example 8); type: in vivo; conditions: for apomorphine-induced emesis: apomorphine IV 0.15 mg/kg, alone (group 3) or with MPH 1.7 mg/kg (group 5)
Excerpt: Methylphenidate (MPH) was used as the model inducer.

[7] = test system: dogs; conditions: general statement, not this study, cited from earlier work

COC(=O)C(c1ccccc1)C1CCCCN1 (centres unmarked) [Methylphenidate, methylphenidate HCl]
motor activity (move time and distance) ([1]; RITALIN® 5 mg/kg, mice, activity box): induced hyperactivity
motor activity (move time and distance covered) ([1]; RITALIN® 8 mg/kg, mice, activity box, HCl, 8 mg/kg): induced hyperactivity
change of move time and distance over time ([1]; RITALIN® induced group, 30 minutes observation): no significant change over time
animals' activity post RITALIN® administration ([2]; RITALIN® 8.25 mg/Kg): drastic increase in the animals' activity
Center Time ([3]; MPH 5 mg/kg IP (2M)): 89.8 s
Distance ([3]; MPH 5 mg/kg IP (2M)): 3147.1 cm
Rearing Time ([3]; MPH 5 mg/kg IP (2M)): 114.3 s
Velocity ([3]; MPH 5 mg/kg IP (2M)): 4.3 cm/s
Center Time ([3]; MPH 5 mg/kg PO (3M)): 88.2 s
Rearing Time ([3]; MPH 5 mg/kg PO (3M)): 104.5 s
Velocity ([3]; MPH 5 mg/kg PO (3M)): 3.4 cm/s
Distance ([3]; MPH 5 mg/kg PO (3M), p < 0.05 vs. 2M): 2198.4* cm
distance travelled and velocity compared to Vehicle-treated controls (1M) ([3]; Methylphenidate 5 mg/kg IP (2M), Day 1, OFT, HCl): significantly increased; also recorded: caused elevation in locomotor activity
change in PK profile on co-administration ([4]; Methylphenidate co-administered with Apomorphine, dogs): somewhat higher values
effect of co-administration of Apomorphine on bioavailability or any other PK parameters ([4]; Methylphenidate, dogs): not affected
bioavailability ([4]; Methylphenidate, dogs, PO 0.3 mg/kg vs IV 1.7 mg/kg): comparable to values published previously in the literature
activity levels ([5]; MPH IV 1.7 mg/kg (group 1), dogs, notably during the first 60-100 min, HCl, 1.7 mg/kg): caused increased activity levels; also recorded: induced increased activity levels
activity levels ([5]; MPH IV 1.7 mg/kg (group 1), dogs, notably during the first 60-100 min, listed as MPH, HCl, 1.7 mg/kg): significantly increased dog activity levels
time until which clinical signs were observed post administration ([5]; MPH IV 1.7 mg/kg (group 1), at least the 30 first minutes, up to 110 minutes in one dog): 50 to 70 min
activity levels ([5]; Methylphenidate PO 0.3 mg/kg (group 2), dogs, score corresponding to normal dogs): did not induce significant modification of activity levels
video observation: behavior associated to hyperactivity ([5]; group 1 (MPH IV 1.7 mg/kg)): constant barking, jumping, walking/circling and a very dynamic state

CN1CCc2cccc3c2[C@H]1Cc1ccc(O)c(O)c1-3 [Apomorphine, apomorphine]
time to emesis post administration ([6]; apomorphine IV 0.15 mg/kg (group 3 and group 5), dogs): 1 to 2 min
apomorphine-induced emesis ([6]; dogs): inducing emesis
apomorphine-induced emesis ([6]; dogs, listed as apomorphine): observed in all treated dogs
induction of emesis ([6]; apomorphine PO 0.027 mg/kg (group 4), dogs): did not induce emesis
Recorded time for observed emesis following apomorphine administration, individual dogs ([6]; group #3 Apo IV 0.15 mg/kg, Dog 1 to Dog 6, listed as Apo, 0.15 mg/kg): 1.0 minutes and 1.5 minutes and 1.1 minutes (2×) and 0.8 minutes and 0.9 minutes
Recorded time for observed emesis following apomorphine administration, Mean ([6]; group #3 Apo IV 0.15 mg/kg, mean of 6 dogs): 1.1 min
locomotion after apomorphine alone ([1]; mice, activity box): caused a sudden ataxia in animals, with nearly still locomotion
locomotion after apomorphine alone ([1]; mice, activity box, listed as apomorphine): induces hypoactivity and nearly ataxic behavior
effect on RITALIN®-induced hyperactivity ([1]; apomorphine injected 5 minutes after RITALIN®, apomorphine 5 mg/kg, RITALIN® 8 mg/kg): totally abolished the effect of RITALIN®; also recorded: total dominance of the effect induced by apomorphine
entering the vertical plan ([1]; apomorphine, mice, activity box): abolished
animals movement / RITALIN®-induced hyperactivity after apomorphine injection ([2]; apomorphine 1.23 mg/Kg with RITALIN® 8.25 mg/Kg): dramatically decreased the animals movement
rearing time compared to Methylphenidate IP treated group (2M) ([3]; Apomorphine 0.9 mg/kg IP in combination with Methylphenidate (7M), Day 1): significantly reduced rearing time
antagonism of Methylphenidate-caused elevation in locomotor activity ([3]; Apomorphine 0.05-0.9 mg/kg IP with Methylphenidate 5 mg/kg): antagonized this effect in a dose-dependent manner
effect on Methylphenidate-increased distance travelled and velocity ([3]; combination with Apomorphine 0.9 mg/kg IP (7M), Day 1): significantly reduced
effect on Methylphenidate-increased distance travelled and velocity ([3]; combination with Apomorphine 0.3 mk/kg IP (6M), Day 1): significantly reduced
plasma levels ([4]; Apomorphine IV 0.15 mg/kg and PO 0.027 mg/kg, dogs' plasma, especially following oral administration): low levels
change in PK profile on co-administration ([4]; Apomorphine co-administered with Methylphenidate, dogs): somewhat lower values
dose to induce vomiting in dogs ([7]; IV): greater than 0.02 mg/kg
dose to induce vomiting in dogs ([7]; PO): greater than 4 mg/kg
dose to induce vomiting in dogs ([7]; SC): greater than 0.3 mg/kg
effect on MPH-induced clinical signs ([5]; apomorphine administered concomitantly with MPH (group 5), IV): abolished these MPH-induced clinical signs
effect on MPH-induced increase in activity ([5]; combination with Apomorphine 0.15 mg/kg IV (group 5), MPH 1.7 mg/kg IV, dogs): diminished the observed increases in activity; also recorded: significantly reduced the observed increase in activity; also recorded: significantly reduced these effects
video observation: behavior associated to hyperactivity ([5]; group 5 (apomorphine 0.15 mg/kg + MPH 1.7 mg/kg IV)): only with circling episodes
